The values that follow come from ChEMBL document CHEMBL5678818, “Discovery of potent SOS1 inhibitors that block RAS activation via disruption of the RAS-SOS1 interaction” (Proc Natl Acad Sci U S A, 2019).

Assay [1] addresses STE20-like serine/threonine-protein kinase (Homo sapiens) (UniProt Q9H2G2). In words: Inhibition of SLK (unknown origin) assessed as residual activity at 1000 nM by KINOMEscan analysis relative to control.
The target in assay [2] is Serine/threonine-protein kinase OSR1 (Homo sapiens) (UniProt O95747). In words: Inhibition of OSR1 (unknown origin) assessed as residual activity at 1000 nM by KINOMEscan analysis relative to control.
In assay [3] the target is Tyrosine-protein kinase Tec (Homo sapiens) (UniProt P42680). Description: Inhibition of TEC (unknown origin) assessed as residual activity at 1000 nM by KINOMEscan analysis relative to control.
Chain of Tyrosine-protein kinase Tec (Homo sapiens) (P42680 whole entry, looked up): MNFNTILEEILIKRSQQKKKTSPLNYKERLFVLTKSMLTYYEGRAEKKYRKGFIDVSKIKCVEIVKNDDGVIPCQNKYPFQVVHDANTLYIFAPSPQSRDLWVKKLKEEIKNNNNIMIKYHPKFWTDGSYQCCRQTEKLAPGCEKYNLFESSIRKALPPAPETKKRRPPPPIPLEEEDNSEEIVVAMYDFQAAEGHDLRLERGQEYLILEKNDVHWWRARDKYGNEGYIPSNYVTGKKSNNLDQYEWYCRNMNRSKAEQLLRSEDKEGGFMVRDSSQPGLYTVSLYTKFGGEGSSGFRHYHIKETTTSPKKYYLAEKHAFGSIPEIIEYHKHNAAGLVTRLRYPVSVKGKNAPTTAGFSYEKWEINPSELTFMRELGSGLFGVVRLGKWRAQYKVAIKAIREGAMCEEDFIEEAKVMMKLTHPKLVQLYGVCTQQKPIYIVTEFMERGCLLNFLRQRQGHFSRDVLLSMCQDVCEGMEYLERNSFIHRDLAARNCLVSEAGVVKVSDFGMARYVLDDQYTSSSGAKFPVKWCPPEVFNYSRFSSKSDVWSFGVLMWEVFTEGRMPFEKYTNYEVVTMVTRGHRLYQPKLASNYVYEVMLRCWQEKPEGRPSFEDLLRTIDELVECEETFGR
In assay [4] the target is Cyclin-dependent kinase 5 (Homo sapiens) (UniProt Q00535). Description: Inhibition of CDK5 (unknown origin) assessed as residual activity at 1000 nM by KINOMEscan analysis relative to control.
The subject of assay [5] is Leucine-rich repeat serine/threonine-protein kinase 2 (Homo sapiens), Q5S007 [G2019S]. In words: Inhibition of LRRK2 G2019S mutant (unknown origin) assessed as residual activity at 1000 nM by KINOMEscan analysis relative to control.
In assay [6] the target is Proto-oncogene tyrosine-protein kinase ROS (Homo sapiens) (UniProt P08922). In words: Inhibition of ROS1 (unknown origin) assessed as residual activity at 1000 nM by KINOMEscan analysis relative to control.
The target in assay [7] is Insulin receptor (Homo sapiens) (UniProt P06213). In words: Inhibition of INSR (unknown origin) assessed as residual activity at 1000 nM by KINOMEscan analysis relative to control.
The target of assay [8] is Death-associated protein kinase 1 (Homo sapiens) (UniProt P53355). Description: Inhibition of DAPK1 (unknown origin) assessed as residual activity at 1000 nM by KINOMEscan analysis relative to control.
Chain of Death-associated protein kinase 1 (Homo sapiens) (P53355 whole entry, looked up): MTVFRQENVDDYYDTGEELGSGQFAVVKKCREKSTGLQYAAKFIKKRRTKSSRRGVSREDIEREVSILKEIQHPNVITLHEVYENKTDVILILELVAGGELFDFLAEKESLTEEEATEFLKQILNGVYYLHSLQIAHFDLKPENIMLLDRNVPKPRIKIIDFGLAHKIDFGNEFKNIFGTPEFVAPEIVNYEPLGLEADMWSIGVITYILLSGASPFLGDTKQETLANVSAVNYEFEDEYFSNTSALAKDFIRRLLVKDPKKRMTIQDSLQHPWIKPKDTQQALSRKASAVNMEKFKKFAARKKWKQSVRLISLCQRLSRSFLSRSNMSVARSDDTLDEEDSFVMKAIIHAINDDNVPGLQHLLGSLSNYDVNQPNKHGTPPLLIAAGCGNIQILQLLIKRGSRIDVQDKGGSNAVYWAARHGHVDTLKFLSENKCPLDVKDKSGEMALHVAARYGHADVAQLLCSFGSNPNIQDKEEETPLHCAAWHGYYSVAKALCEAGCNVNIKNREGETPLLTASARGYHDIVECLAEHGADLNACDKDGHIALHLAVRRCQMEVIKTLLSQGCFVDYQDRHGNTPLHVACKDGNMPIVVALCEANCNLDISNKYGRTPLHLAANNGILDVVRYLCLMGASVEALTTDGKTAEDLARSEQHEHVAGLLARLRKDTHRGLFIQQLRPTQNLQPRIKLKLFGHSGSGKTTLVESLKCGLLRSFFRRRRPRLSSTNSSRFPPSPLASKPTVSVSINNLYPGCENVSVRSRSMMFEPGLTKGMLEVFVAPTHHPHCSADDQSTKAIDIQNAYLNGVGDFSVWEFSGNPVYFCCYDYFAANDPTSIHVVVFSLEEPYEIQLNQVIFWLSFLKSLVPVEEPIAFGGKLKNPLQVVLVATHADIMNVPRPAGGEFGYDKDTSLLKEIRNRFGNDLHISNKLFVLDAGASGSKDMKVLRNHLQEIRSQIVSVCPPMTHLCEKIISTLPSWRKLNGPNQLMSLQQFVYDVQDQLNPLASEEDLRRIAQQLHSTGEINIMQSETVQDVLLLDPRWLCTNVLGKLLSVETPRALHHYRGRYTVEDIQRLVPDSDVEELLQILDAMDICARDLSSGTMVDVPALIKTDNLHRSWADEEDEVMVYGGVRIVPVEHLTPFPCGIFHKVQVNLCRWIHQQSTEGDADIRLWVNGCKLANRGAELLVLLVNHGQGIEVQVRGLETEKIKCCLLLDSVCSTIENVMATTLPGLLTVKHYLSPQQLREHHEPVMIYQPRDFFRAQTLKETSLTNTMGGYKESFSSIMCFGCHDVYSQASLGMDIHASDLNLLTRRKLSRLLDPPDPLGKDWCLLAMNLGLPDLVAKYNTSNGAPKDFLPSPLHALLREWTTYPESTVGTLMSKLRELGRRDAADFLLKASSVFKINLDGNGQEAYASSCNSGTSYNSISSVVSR
Assay [9] concerns the target Microtubule-associated serine/threonine-protein kinase 1 (Homo sapiens) (UniProt Q9Y2H9). In words: Inhibition of MAST1 (unknown origin) assessed as residual activity at 1000 nM by KINOMEscan analysis relative to control.
Assay [10] has as its target T1, Serine/threonine-protein kinase ICK (Homo sapiens) (UniProt Q9UPZ9).
T1 sequence (whole entry): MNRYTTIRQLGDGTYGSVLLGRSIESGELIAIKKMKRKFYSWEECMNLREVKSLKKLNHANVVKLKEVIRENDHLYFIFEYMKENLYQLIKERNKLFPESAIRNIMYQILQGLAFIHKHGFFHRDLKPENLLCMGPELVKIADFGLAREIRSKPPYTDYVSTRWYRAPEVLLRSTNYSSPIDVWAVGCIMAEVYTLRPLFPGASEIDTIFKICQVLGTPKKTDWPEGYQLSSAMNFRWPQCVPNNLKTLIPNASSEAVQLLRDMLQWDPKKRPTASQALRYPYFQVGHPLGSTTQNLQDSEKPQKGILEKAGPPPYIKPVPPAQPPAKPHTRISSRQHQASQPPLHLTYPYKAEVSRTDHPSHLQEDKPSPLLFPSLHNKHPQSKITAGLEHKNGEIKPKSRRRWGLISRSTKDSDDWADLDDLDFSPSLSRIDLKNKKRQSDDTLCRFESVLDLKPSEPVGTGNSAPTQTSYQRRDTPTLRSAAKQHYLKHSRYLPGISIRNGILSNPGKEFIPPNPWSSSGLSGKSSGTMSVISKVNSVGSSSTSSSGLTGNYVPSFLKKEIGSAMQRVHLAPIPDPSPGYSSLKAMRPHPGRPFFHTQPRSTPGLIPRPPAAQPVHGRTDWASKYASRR
In words: Inhibition of ICK (unknown origin) assessed as residual activity at 1000 nM by KINOMEscan analysis relative to control.

The target of assay [11] is T2, Phosphorylase b kinase gamma catalytic chain, liver/testis isoform (Homo sapiens) (UniProt P15735).
T2 sequence (whole entry): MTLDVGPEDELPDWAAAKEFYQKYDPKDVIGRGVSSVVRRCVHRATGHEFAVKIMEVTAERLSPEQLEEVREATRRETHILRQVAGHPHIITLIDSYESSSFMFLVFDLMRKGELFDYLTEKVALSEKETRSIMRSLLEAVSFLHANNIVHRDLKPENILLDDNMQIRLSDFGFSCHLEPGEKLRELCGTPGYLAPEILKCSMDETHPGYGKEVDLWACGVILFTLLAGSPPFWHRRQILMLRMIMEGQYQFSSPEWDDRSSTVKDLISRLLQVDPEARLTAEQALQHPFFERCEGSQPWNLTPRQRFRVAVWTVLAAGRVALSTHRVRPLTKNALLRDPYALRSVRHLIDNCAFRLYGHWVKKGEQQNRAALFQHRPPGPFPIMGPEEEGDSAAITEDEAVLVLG
In words: Inhibition of PHKG2 (unknown origin) assessed as residual activity at 1000 nM by KINOMEscan analysis relative to control.

The target in assay [12] is T3, Serine/threonine-protein kinase DCLK1 (Homo sapiens) (UniProt O15075).
T3 sequence (whole entry): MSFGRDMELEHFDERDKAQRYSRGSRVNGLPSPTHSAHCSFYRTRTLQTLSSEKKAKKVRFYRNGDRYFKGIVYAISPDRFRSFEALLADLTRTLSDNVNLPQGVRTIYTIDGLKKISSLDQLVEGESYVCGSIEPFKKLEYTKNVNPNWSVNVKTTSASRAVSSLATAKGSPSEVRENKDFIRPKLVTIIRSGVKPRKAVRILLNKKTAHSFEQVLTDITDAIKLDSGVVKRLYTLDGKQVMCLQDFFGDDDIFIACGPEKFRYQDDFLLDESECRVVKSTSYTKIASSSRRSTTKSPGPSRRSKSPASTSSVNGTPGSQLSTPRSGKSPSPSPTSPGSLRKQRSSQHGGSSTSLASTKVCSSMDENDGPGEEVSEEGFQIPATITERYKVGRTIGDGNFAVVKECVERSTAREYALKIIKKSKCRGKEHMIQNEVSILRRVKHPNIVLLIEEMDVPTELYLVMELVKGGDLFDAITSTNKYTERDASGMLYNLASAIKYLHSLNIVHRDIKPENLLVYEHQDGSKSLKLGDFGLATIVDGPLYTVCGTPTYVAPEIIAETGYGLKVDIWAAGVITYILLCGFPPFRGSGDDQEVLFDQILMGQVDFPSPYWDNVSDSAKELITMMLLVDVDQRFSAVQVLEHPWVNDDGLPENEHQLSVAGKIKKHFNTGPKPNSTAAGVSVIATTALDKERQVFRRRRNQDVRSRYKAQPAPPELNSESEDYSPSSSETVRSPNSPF
In words: Inhibition of DCAMKL1 (unknown origin) assessed as residual activity at 1000 nM by KINOMEscan analysis relative to control.

Chain of Microtubule-associated serine/threonine-protein kinase 1 (Homo sapiens) (Q9Y2H9 whole entry, looked up): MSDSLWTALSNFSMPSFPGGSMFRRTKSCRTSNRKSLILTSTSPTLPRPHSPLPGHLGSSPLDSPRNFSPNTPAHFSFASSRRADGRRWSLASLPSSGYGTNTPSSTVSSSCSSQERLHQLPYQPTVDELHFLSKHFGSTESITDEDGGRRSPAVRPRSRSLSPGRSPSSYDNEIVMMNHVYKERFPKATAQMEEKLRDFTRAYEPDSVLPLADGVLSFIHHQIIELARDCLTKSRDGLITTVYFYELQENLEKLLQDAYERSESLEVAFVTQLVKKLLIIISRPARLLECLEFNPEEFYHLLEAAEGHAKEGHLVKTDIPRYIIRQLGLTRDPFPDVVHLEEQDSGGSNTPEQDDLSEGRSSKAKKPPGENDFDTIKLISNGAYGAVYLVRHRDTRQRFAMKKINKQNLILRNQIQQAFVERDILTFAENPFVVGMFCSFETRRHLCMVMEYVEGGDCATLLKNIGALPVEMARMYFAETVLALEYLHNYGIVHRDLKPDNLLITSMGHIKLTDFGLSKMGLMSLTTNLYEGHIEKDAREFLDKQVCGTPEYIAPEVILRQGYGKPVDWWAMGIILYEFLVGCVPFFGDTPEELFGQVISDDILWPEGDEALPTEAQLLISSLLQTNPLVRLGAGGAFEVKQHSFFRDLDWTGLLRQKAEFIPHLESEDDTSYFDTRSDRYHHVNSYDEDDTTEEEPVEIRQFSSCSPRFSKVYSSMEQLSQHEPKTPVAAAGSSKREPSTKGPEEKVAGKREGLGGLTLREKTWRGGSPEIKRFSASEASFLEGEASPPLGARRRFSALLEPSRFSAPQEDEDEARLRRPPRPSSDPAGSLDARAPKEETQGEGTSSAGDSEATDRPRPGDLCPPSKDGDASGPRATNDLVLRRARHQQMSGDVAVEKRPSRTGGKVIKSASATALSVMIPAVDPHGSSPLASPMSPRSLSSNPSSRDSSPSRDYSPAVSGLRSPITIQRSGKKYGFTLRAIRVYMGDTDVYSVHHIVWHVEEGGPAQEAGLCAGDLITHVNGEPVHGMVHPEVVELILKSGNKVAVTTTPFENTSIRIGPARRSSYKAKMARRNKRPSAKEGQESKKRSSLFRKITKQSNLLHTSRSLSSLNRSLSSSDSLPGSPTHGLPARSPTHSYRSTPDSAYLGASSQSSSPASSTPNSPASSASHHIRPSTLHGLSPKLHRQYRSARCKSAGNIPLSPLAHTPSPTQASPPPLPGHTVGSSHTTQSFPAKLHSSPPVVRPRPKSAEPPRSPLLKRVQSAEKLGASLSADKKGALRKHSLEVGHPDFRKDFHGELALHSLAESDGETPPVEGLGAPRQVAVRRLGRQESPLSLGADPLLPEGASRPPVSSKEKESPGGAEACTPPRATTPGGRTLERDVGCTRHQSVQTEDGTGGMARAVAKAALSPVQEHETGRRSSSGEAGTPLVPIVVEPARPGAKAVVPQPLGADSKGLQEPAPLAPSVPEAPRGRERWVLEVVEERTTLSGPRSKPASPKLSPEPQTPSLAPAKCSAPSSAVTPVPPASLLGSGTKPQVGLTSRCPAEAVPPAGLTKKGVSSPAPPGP
Chain of STE20-like serine/threonine-protein kinase (Homo sapiens) (Q9H2G2 whole entry, looked up): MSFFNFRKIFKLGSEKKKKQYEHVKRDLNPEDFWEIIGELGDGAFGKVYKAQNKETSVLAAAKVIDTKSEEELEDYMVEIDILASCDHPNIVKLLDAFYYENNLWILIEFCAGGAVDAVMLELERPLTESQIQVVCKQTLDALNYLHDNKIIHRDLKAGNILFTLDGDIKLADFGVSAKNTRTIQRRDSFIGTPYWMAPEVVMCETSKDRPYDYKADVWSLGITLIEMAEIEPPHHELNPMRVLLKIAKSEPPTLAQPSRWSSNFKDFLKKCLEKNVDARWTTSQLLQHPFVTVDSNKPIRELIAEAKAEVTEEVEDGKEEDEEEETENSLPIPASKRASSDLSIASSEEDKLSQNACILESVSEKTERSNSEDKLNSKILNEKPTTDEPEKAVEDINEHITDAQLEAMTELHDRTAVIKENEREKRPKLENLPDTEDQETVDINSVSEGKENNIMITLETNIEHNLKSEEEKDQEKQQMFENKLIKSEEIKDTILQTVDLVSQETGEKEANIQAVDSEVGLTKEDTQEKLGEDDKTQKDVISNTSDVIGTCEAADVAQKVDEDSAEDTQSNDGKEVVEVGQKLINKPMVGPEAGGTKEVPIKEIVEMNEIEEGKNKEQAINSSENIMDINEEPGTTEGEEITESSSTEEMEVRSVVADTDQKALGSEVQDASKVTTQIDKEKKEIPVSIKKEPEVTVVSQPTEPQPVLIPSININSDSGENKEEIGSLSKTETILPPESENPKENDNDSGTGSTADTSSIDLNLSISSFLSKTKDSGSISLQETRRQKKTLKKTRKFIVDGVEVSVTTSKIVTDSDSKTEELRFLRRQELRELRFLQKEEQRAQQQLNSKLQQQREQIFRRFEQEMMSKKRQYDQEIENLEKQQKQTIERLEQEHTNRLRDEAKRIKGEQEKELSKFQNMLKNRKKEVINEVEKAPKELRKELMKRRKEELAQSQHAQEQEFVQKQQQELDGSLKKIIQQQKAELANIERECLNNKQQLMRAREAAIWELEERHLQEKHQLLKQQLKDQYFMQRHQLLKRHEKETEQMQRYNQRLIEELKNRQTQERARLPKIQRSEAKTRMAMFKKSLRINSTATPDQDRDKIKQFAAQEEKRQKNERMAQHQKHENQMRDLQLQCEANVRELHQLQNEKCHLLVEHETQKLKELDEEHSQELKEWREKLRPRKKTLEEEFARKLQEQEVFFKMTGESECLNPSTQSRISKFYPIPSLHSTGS

Take `COc1cc2nc(C)nc(N[C@H](C)c3cccc(-c4cn[nH]c4)c3)c2cc1OC`: the Activity in assay [1] was found to be 61%; in [2], 93%; in [3], 85%; in [4], 94%; in assay [5] it was 91%; in [6], 100%. For the same compound, the Activity worked out at 80% in [7]; 82% in [8]; 64% in assay [9]; 78% in assay [10]; 59% in assay [11]; 64% in assay [12].
Regarding `COc1cc2ncnc(N[C@H](C)c3cccc4ccccc34)c2cc1OC`, the Activity in assay [1] worked out at 84%; in assay [2] it was 97%; in [3], 98%; in assay [4] it was 100%; in assay [5], 95%; in [6] it was 90%. For the same compound, the Activity came out at 82% in assay [7]; 100% in assay [8]; 91% in assay [9]; 94% in assay [10]; 100% in [11]; 76% in assay [12].
